From patent publication US20220112237A1, “AMINO ACID COMPOSITION HAVING CO-AMORPHOUS STRUCTURE” (AJINOMOTO CO., INC., priority 2019, published 2022)

Tests used:
[1] = Test to confirm the dissolved amount (Tyr concentration of supernatant by HPLC); type: physicochemical; conditions: 130 mg in 100 mL water, pH 6.5-7.5, 25° C., stirred, after 24 hours
Procedure: […] After the powder was dissolved completely, the pH was adjusted using 5 mol/L hydrochloric acid to be within the range of 6.5-7.5. Bottles A-D were immersed in a water bath (“NCG-3300”, manufactured by Tokyo Rikakikai Co., Ltd.) at 25° C., and bottles A and C were stirred by the magnetic stirrer, and bottles B and D were allowed to stand without stirring. After 2 hours, 2 mL was sampled from each bottle, and filtered using a 0.45 μm filter (“Millex”, Merck). The filtered sample was diluted 50 times, and the Tyr concentration of the supernatant was determined using high-performance liquid chromatography (HPLC) (“1100 Series”, manufactured by Agilent).
The above process was conducted again after 24 hours, 48 hours, and 333 hours. In the drawing, ◯, Δ, ● and ▴ represent A (stirred, 138 mg), B (allowed to stand, 138 mg), C (stirred, 220 mg) and D (allowed to stand, 220 mg), respectively. […]
After 5 minutes, 10 minutes, 30 minutes, 1 hour, 2 hours, 24 hours, and 168 hours from the start of stirring, 2 mL was sampled from each sample bottle, and filtered using the 0.45 […] filter (“Millex”, Merck). The filtered sample was diluted 50 times, and the Tyr concentration of the supernatant was determined using the high-performance liquid chromatography (HPLC) (“1100 Series”, manufactured by Agilent).

[2] = Confirmation of formation of amorphous product by powder X-ray diffraction; type: physicochemical; conditions: Cys2 with Arg or Cys2 alone, ball mill as Example 1, 30° C., FIG. 6
Procedure: The solid powder obtained in (1) was measured by the powder X-ray diffraction apparatus (“Empyrean”, manufactured by Malvern Panalytical), and the powder X-ray diffraction patterns of the solid were obtained. In the drawing, line a represents the pattern of the mixture at time zero, line b represents time zero plus 4 hours, and line c represents time zero plus 12 hours. As a result, a well-defined peak characteristic of crystal structure was not found. From this, it was confirmed that the solid obtained in (1) was amorphous.
The solid obtained in (1) was measured by the same powder X-ray diffraction apparatus as Example 1, and the powder X-ray diffraction patterns of the solid are shown in FIG. 4.
The solid obtained in (1) was measured by the same powder X-ray diffraction apparatus as Example 1, and the powder X-ray diffraction patterns were obtained. […]
The solid obtained in (1) was measured by the same powder X-ray diffraction apparatus as Example 1, and the powder X-ray diffraction patterns of the solid are shown in FIG. 7.
The solid obtained in (1) was measured by the same powder X-ray diffraction apparatus as Example 1, and the powder X-ray diffraction patterns of the solid are shown in FIG. 8.
The solid obtained in (1) was measured by the same powder X-ray diffraction apparatus as Example 1, and the powder X-ray diffraction patterns of the solid are shown in FIG. 9. […]

Row | SMILES | Tyr concentration of the supernatant [1] | Formation of amorphous product after pulverization [2]
1 | N[C@@H](Cc1ccc(O)cc1)C(=O)O [Tyr crystal, tyrosine] | 430 mg/L | –
2 | N[C@@H](CSSC[C@H](N)C(=O)O)C(=O)O [compound 7, Cystine] | – | the crystal property remained
